Several values for one entry are separate records, joined by “and”; a condition that tells them apart may be missing. Identical values can stand only once.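 Assay format: 96-well plates, 48-hour exposure. GI50: concentration for 50% inhibition of growth. TGI is the concentration that stops growth completely.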
How the values were obtained:
Experiment in all cases: inhibition of tumour cell growth, NCI panel, 48 h
NCI-H226 lung = system: NCI-H226 lung
MCF7 breast = system: MCF7 breast
UACC-62 melanoma = system: UACC-62 melanoma
SK-MEL-5 melanoma = system: SK-MEL-5 melanoma
SR leukemia = system: SR leukemia
OVCAR-4 ovarian = system: OVCAR-4 ovarian
HL-60(TB) leukemia = system: HL-60(TB) leukemia
MALME-3M melanoma = system: MALME-3M melanoma
UACC-257 melanoma = system: UACC-257 melanoma
LOX IMVI melanoma = system: LOX IMVI melanoma

Structure (SMILES) | GI50 (NCI-H226 lung) | TGI (NCI-H226 lung) | GI50 (MCF7 breast) | TGI (MCF7 breast) | GI50 (UACC-62 melanoma) | TGI (UACC-62 melanoma) | GI50 (SK-MEL-5 melanoma) | TGI (SK-MEL-5 melanoma) | GI50 (SR leukemia) | TGI (SR leukemia) | GI50 (OVCAR-4 ovarian) | TGI (OVCAR-4 ovarian) | GI50 (HL-60(TB) leukemia) | TGI (HL-60(TB) leukemia) | GI50 (MALME-3M melanoma) | TGI (MALME-3M melanoma) | GI50 (UACC-257 melanoma) | TGI (UACC-257 melanoma) | GI50 (LOX IMVI melanoma) | TGI (LOX IMVI melanoma)
O=C(/C=C/c1ccccn1)c1ccccc1 | 15.2 µM | 29.7 µM | 2.07 µM | 8.46 µM | 2.33 µM | 7 µM | 12.1 µM | 24.8 µM | 1.96 µM | 14.1 µM | 5.06 µM | 18.3 µM | 1.88 µM | 6.75 µM | 13.8 µM | 35.1 µM | 2.68 µM | 9.25 µM | 1.63 µM | 3.08 µM
Cc1nc(Nc2ccc(Cl)c(Cl)c2)sc1C(/C=C/c1ccc2c(c1)OCO2)=N/Nc1ccc([N+](=O)[O-])cc1[N+](=O)[O-] | – | > 100 µM | – | > 100 µM | – | > 88 µM | – | > 100 µM | – | > 100 µM | – | > 100 µM | – | > 100 µM | – | > 100 µM | – | > 100 µM | – | > 100 µM
Nc1nc2c(ncn2C2OC(CO)C(O)C2O)c(=O)[nH]1 (stereo not drawn) | – | 224 µM | > 100 µM | > 100 µM and 223 µM | > 100 µM | > 100 µM and 175 µM | > 100 µM | > 100 µM and 103 µM | > 100 µM | > 100 µM | > 100 µM | > 100 µM and 215 µM | > 100 µM | > 100 µM and 99.7 µM | 24.1 µM and 176 µM | 55.4 µM and 285 µM | > 100 µM and 20.8 µM | > 100 µM and 282 µM | > 100 µM | > 100 µM and 145 µM
COc1ccc(-c2nn(-c3cccc(Cl)c3)cc2-c2c(C#N)c(=O)n3[nH]c(-c4ccc(C)o4)nc3c2C#N)cc1 | 7.35 µM | > 50 µM | 1.75 µM | > 50 µM | 6.46 µM | 42.7 µM | 5.64 µM | 12.4 µM | 4.22 µM | 22.1 µM | 6.59 µM | > 50 µM | 4.88 µM | 23.5 µM | 7.88 µM | 41.1 µM | 8.45 µM | > 50 µM | 3.92 µM | 12.3 µM
COc1ccc2cc1Oc1ccc(cc1)CC1c3c(cc(OC)c4c3Oc3cc5c(cc3O4)CCNC5C2)CCN1C (stereo not drawn) | 2.3 µM | 4.18 µM | – | 3.38 µM | – | 3.43 µM | – | 3.98 µM | – | 2.51 µM | 1.61 µM | 6.16 µM and 3.13 µM | – | 3.67 µM | – | 3.68 µM | 1.9 µM | 3.14 µM and 3.5 µM | – | 3.22 µM
CC(C)OC(=O)c1cc(NC(=S)OC(C)C)ccc1Cl | – | 37.6 µM | – | > 53 µM | – | 31.2 µM | – | 33.1 µM | – | > 100 µM | – | > 56 µM | – | > 31.6 µM | – | > 56.9 µM | – | 50.9 µM | – | 31.2 µM
c1ccc2[nH]c(-c3cscn3)nc2c1 | – | > 100 µM | – | > 100 µM | – | > 100 µM | – | > 100 µM | > 100 µM and 38.7 µM | > 100 µM | – | > 100 µM | – | > 100 µM | – | > 100 µM | – | > 100 µM | – | > 100 µM
CNc1ccc(CSc2ccc(C)cc2)cc1 | 3.43 µM | 16.4 µM | 21.2 µM | > 100 µM | 17.3 µM | 52.9 µM | 13.8 µM | 32.6 µM | 6.15 µM | 90.1 µM | 7.44 µM | > 100 µM | 1.32 µM | 4.28 µM | 31.5 µM | > 100 µM | 36.1 µM | > 100 µM | 14.5 µM | > 100 µM
COc1cc(C(=O)Nc2ccc(-c3nc4ccccc4[nH]3)cc2)cc(OC)c1OC | 15.3 µM | 36.7 µM | 11.2 µM | 30.6 µM | 9.89 µM | 24.4 µM | 11.5 µM | 25.9 µM | 6.92 µM | 40.9 µM | 11.8 µM | 36.9 µM | 17.8 µM | 56.4 µM | 12 µM | 31.6 µM | 17.8 µM | 38.9 µM | 11.2 µM | 30.9 µM
CSc1ccc2c(c1)N(CCCN(C)C)c1ccccc1S2 | – | 43.2 µM | – | 26.1 µM | – | 22.4 µM | – | 25.4 µM | – | 19.2 µM | – | 24.5 µM | – | 31.3 µM | – | 22 µM | – | 19.9 µM | – | 32.4 µM
COc1ccccc1CNCCCN1C(=O)c2ccc3c4c(ccc(c24)C1=O)C(=O)N(CCCNCCCCN)C3=O | 0.828 µM | 2.55 µM | 0.202 µM | 0.555 µM | 0.237 µM | 0.674 µM | 0.164 µM | 0.303 µM | 0.0928 µM | 0.82 µM | 0.165 µM | 0.319 µM | 0.229 µM | 0.527 µM | 0.176 µM | 0.327 µM | 0.166 µM | 0.317 µM | 0.202 µM | 0.557 µM
COc1cc(/C=C/C(=O)/C=C/c2ccc(-n3ccnc3)cc2)ccc1O | 2.31 µM | 5.8 µM | 0.827 µM | 6.21 µM | 5.01 µM | 30.2 µM | 3.43 µM | 12 µM | 1.67 µM | 9.24 µM | 8.38 µM | 35.5 µM | 3.29 µM | 22.4 µM | 5.4 µM | 36.7 µM | 3.21 µM | 11.5 µM | 1.74 µM | 3.19 µM
COc1ccc([C@H]2c3[nH]c4ccccc4c3C[C@H]3C(=O)N(CCCCCCC(=O)NO)CC(=O)N23)cc1 | 6.26 µM | > 33.3 µM | 1.78 µM | > 33.3 µM | 0.705 µM | 3.97 µM | 1.89 µM | 6.89 µM | 1.46 µM | > 33.3 µM | 12.4 µM | > 33.3 µM | 1.19 µM | > 33.3 µM | 0.806 µM | > 33.3 µM | 1.12 µM | > 33.3 µM | 1.54 µM | 5.91 µM
COc1cc(OC)c(OC)cc1/C=C\c1ccnc2ccccc12 | – | 30.2 µM | – | > 100 µM | – | > 67.9 µM | – | 19.7 µM | – | > 100 µM | – | > 100 µM | – | 5 µM | – | > 100 µM | – | > 100 µM | – | > 42.5 µM
